According to ChEMBL document CHEMBL1148689, “Isolation of new phenylacetylingol derivatives that reactivate HIV-1 latency and a novel spirotriterpenoid from Euphorbia officinarum latex” (2007):
The source made the active and inactive calls. No cut-off for these calls is given here.

Key:
Jurkat [1] = assay: Induction of HIV-LTR transactivation assessed by GFP expression in Jurkat cells at 10 ng/ml after 36 hrs by flow cytometry; assay type: cell-based; conditions: Human immunodeficiency virus
Jurkat [2] = assay: Cell cycle arrest in human Jurkat cells assessed as accumulation at G0/G1 phase at 50 uM after 36 hrs by flow cytometry; assay type: functional
Jurkat [3] = assay: Induction of HIV-LTR transactivation assessed by GFP expression in Jurkat cells at 10 uM after 36 hrs by flow cytometry; assay type: cell-based; conditions: Human immunodeficiency virus
Jurkat [4] = assay: Cell cycle arrest in human Jurkat cells assessed as accumulation at sub-G0 phase at 50 uM after 36 hrs by flow cytometry; assay type: functional
Jurkat [5] = assay: Cell cycle arrest in human Jurkat cells assessed as accumulation at G2/M phase at 10 uM after 36 hrs by flow cytometry; assay type: functional
Jurkat [6] = assay: Cell cycle arrest in human Jurkat cells assessed as accumulation at S phase at 50 uM after 36 hrs by flow cytometry; assay type: functional
Jurkat [7] = assay: Induction of HIV-LTR transactivation assessed by GFP expression in Jurkat cells at 50 uM after 36 hrs by flow cytometry; assay type: cell-based; conditions: Human immunodeficiency virus
Jurkat [8] = assay: Induction of HIV-LTR transactivation assessed by GFP expression in Jurkat cells at 25 uM after 36 hrs by flow cytometry; assay type: cell-based; conditions: Human immunodeficiency virus
Jurkat [9] = assay: Cell cycle arrest in human Jurkat cells assessed as accumulation at G2/M phase at 50 uM after 36 hrs by flow cytometry; assay type: functional
Jurkat [10] = assay: Cell cycle arrest in human Jurkat cells assessed as accumulation at sub-G0 phase at 10 uM after 36 hrs by flow cytometry; assay type: functional
Jurkat [11] = assay: Cell cycle arrest in human Jurkat cells assessed as accumulation at G0/G1 phase at 10 uM after 36 hrs by flow cytometry; assay type: functional
Jurkat [12] = assay: Cell cycle arrest in human Jurkat cells assessed as accumulation at S phase at 10 uM after 36 hrs by flow cytometry; assay type: functional

In the case of `CCCCCCCCCCCCCC(=O)O[C@@H]1[C@@H](C)[C@@]2(O)[C@@H](C=C(CO)C[C@]3(O)C(=O)C(C)=C[C@@H]23)[C@@H]2C(C)(C)[C@]12OC(C)=O`, the Activity (Jurkat [1]) is reported as 97.3%.
For `CO[C@H]1C(OC(C)=O)/C(C)=C/[C@@]23O[C@@]2(C[C@H](C)[C@@H]3OC(=O)Cc2ccccc2)C(=O)[C@H](C)[C@H](OC(C)=O)[C@@H]2[C@H]1C2(C)C` (some centres undefined), the Activity (Jurkat [2]) was 81.4%, the Activity (Jurkat [3]) was 25.5% and the Activity (Jurkat [4]) was 3.97%. It also gave an Activity (Jurkat [5]) of 10.8%, an Activity (Jurkat [6]) of 5.31% and an Activity (Jurkat [7]) of 83.5%. It also gave an Activity (Jurkat [8]) of 66%, an Activity (Jurkat [9]) of 9.22% and an Activity (Jurkat [10]) of 2.34%. The Activity (Jurkat [11]) was 77.8% and the Activity (Jurkat [12]) was 9.01%.
`CC(=O)OC1/C(C)=C/[C@@]23O[C@@]2(C[C@H](C)[C@@H]3OC(=O)Cc2ccccc2)C(=O)[C@H](C)[C@H](OC(C)=O)[C@@H]2[C@H]([C@H]1OC(C)=O)C2(C)C` (some centres undefined) was tested, and the Activity (Jurkat [2]) was 66.2%, the Activity (Jurkat [3]) was “inactive” and the Activity (Jurkat [4]) was 1.38%. The Activity (Jurkat [5]) was 15.9%, the Activity (Jurkat [6]) was 18.7% and the Activity (Jurkat [7]) was “inactive”. The Activity (Jurkat [8]) was “inactive”, the Activity (Jurkat [9]) was 13.4% and the Activity (Jurkat [10]) was 1.52%. The Activity (Jurkat [11]) was 61.5% and the Activity (Jurkat [12]) was 20.9%.
`COc1ccc(CC(=O)O[C@H]2[C@@H](C)C[C@@]34O[C@@]23/C=C(\C)C(OC(C)=O)[C@H](OC(C)=O)[C@H]2[C@@H]([C@@H](OC(C)=O)[C@@H](C)C4=O)C2(C)C)cc1` (some centres undefined) was tested, and the Activity (Jurkat [2]) was 61.5%, the Activity (Jurkat [3]) was “inactive” and the Activity (Jurkat [4]) was 1.95%. The Activity (Jurkat [5]) was 16.4%, the Activity (Jurkat [6]) was 21.7% and the Activity (Jurkat [7]) was “inactive”. For the same molecule, the Activity (Jurkat [8]) was “inactive”, the Activity (Jurkat [9]) was 14.7% and the Activity (Jurkat [10]) was 1.59%. The Activity (Jurkat [11]) was 60.9% and the Activity (Jurkat [12]) was 21%.
